According to US20260028404A1 (UNIVERSITY OF KANSAS, priority 2022, published 2026):
Entries after “also recorded” stand apart in the source; their conditions may differ.

Tests used:
[1] = system: EO771 tumors; assay: EO771 triple negative breast cancer model, GA dose escalation with anti-PD1; design: species or system C57BL/6 mice; conditions: mouse, in vivo
Method: GA was evaluated for its intratumoral efficacy and dose dependency in tumors alone and in combination with systemic anti-PD1 in the murine Triple negative breast cancer model EO771. EO771 cells were implanted to C57BL/6 mice on Day 0. In this study, two doses of intraperitoneal anti-PD1 (100 μg or 250 μg) and three doses of intratumoral GA (300 μg, 1 mg, 2 mg) were evaluated. Primary tumors were measured by caliper measurement. Tumor volumes were calculated according to the formula, tumor volume (mm^3)=0.52×(width)^2 ×length, where length is the longer of two perpendicular dimensions.

[2] = system: 28 immune related proteins; assay: GeoMx digital spatial profiling, biopsy vs resected treated tumor; format: in vivo, human
Method: GeoMx DSP analysis: Digital spatial profiling of pre-and post-treatment formalin-fixed, paraffin embedded (FFPE) tumor tissue was performed using the GeoMx DSP platform (NanoString Technologies) to measure levels of 28 protein markers associated with immune oncology. Specifically, the immune cell profiling core protein module and IO drug target protein module were used for this analysis following manufacturer's protocol for staining, hybridization, collection, detection (nCounter based-counting), and data normalization. Briefly, this entailed an initial pathologist review of hematoxylin and eosin-stained sections by a pathologist at KUMC to verify presence of tumor cells within the FFPE block. Next, a 5 μm-think unstained FFPE slide was subjected to a cocktail of primary antibodies conjugated with unique DNA-oligonucleotide moieties attached with a light sensitive photocleavable linker. Within this cocktail were also anti-pan-cytokeratin (included with GeoMx assay and used for the basal cell carcinoma and squamous cell carcinoma samples) or anti-MART-1 (Novus Biologicals, catalog #NBP2-46603AF647 used for targeting epithelium in melanoma samples), CD45 (for targeting immune cells) and Syto-13 (used as a nuclear stain). These fluorescently labeled antibodies were used for imaging and identifying the regions of interest (ROIs) followed by segmentation into tumor cells and immune cells for independent collection from each ROI into individual wells of a 96-well plate followed by digital quantification using the NanoString nCounter platform. The GeoMx DSP Analysis Suite version 2.4 was used to perform data QC, normalization, and statistical analysis following guidance by NanoString field scientists. For analysis of similar cell populations (i.e., expression levels only in epithelial cells or only in immune cells), the geometric mean of housekeeping proteins GAPDH, Histone H3, and S6 was used for normalization. When different cell populations were being analyzed (i.e., expression levels in epithelial versus immune cells), the geometric mean of the signal-to-noise ratio of negative control mouse and rabbit isotype IgG controls was used for background correction prior.
The GeoMx Digital Spatial Profiling (DSP) platform (NanoString) was used to profile 28 immune related proteins. This platform allows users to perform nondestructive interrogation of formalin-fixed paraffin embedded (FFPE) tissue (among other tissue types) for multiplexed spatial profiling of immunooncology-related proteins to assess tumor cells and their microenvironment. The GeoMx platform uses a cocktail of antibodies conjugated to photocleavable DNA-barcoded oligos to provide high multiplex capacity and the use of guided ultraviolet light exposure (by way of adjustable 1 million micromirrors) provides a high degree of flexibility in selection of regions of interest for study. DSP technology and the GeoMx platform have been extensively reviewed.
Using the GeoMx DSP platform, we performed in situ digital spatial profiling of tissue specimens collected from the COPAX trial patients before and after treatment to measure levels of 28 proteins (Immune cell profiling panel, and the IO drug target panel). After a pathologist review of H&E-stained tissue specimens to assess presence of tumor cells, GeoMx DSP analysis was performed on a serial unstained slide for each sample. Regions of interest (ROIs) which encompassed both tumor and immune cells were selected either by free-hand drawing using the polygon tool or using a standard circle. The ROIs were further segmented into tumor cells and immune cells based on the staining pattern of morphology markers (pan-cytokeratin and CD45 for the carcinomas and MARTI and CD45 for the melanomas). Following segmentation, the DNA bar codes corresponding to each target in the antibody cocktail were collected by the instrument. […]

[3] = system: differentially expressed genes; assay: RNAseq differential gene expression, pre vs post treatment tumor; format: in vivo, human
Method: RNASeq Analysis: A cutoff linear fold-change of 4 was used to select for the differentially expressed genes in each patient. Gene ontology (GO) of the biological process, functional annotation clustering, and Kyoto Encyclopedia of Genes and Genomes (KEGG) pathway analysis of the differentially expressed genes was performed using Database for Annotation, Visualization, and Integrated Discovery (DAVID) v2021^7,8.
Immune biomarkers were assessed in tumor biopsies and compared with those in the resected tumors after treatment. Conventional RNA sequencing and a geographical sequencing platform (GeoMx) were used to assess immune markers at the transcriptional level. In the RNA-Seq gene expression analysis, genes were filtered for differentially expressed genes (|FC|<4) between pre-and post-samples for three patients.

[4] = in vivo; cited from earlier work
[5] = mouse, in vivo; cited from earlier work
[6] = system: AT84 model; conditions: low-dose GA (300 μg) alone, previous study; cited from earlier work
[7] = mouse, in vivo; cited from earlier work; remark: listed apart in the source
[8] = system: EAE; conditions: mice; cited from earlier work
[9] = system: Clone M3 tumors; assay: Cloudman M3 (Clone M3) melanoma model; format: in vivo, DBA/2N mice; conditions: through 21 days; 2 mg GA IT x5, 10 mg/kg antibody IP x3
Method: Mice were randomized into treatment groups when tumors reached mean volumes of 50-80 mm^3 at Day 7.
Treatment groups consisted of vehicle control (n=7, 4% mannitol IT plus 10 mg/kg isotype control antibody IP), anti-PD1 alone (n=5, 4% mannitol IT plus 10 mg/kg anti-PD1 IP), GA alone (2 mg GA IT plus 10 mg/kg isotype control IP), or GA+anti-PD1 combination (n=5, 2 mg GA IT plus 10 mg/kg anti-PD1 IP). Intratumoral treatments were administered 5 times at a frequency of 3 times per week and 50 μL per injection beginning on Day 7. Intraperitoneal antibody was given beginning on Day 7 as well, but for a total of 3 times on a frequency of every 3-4 days.
Primary tumors were measured by caliper measurement. Tumor sizes were
calculated according to the formula (W^2×L)/2. Animals were euthanized when any tumor diameter dimension exceeded 1.8 cm.

With Glatiramer acetate [GA] the “systemic cytokines associated with cytokine release syndrome” value [1] was “does not induce systemic cytokines typically associated with cytokine release syndrome”, the “patients with CD56 upregulated” value ([2]; Table B patients) was 2 patients and the “patients with PD-L1 upregulated” value ([2]; Table B patients) was 3 patients. The “Gene expression (upregulated post-treatment)” value (from here on “Gene expression”) ([2]; patient BCCa-Left Nasal Ala, 2 Copaxone injections) was “CD56, CD11c,”, the “Gene expression” value ([2]; patient BCCa-Right Post. Neck, 2 Copaxone injections) was “VISTA, GITR” and the “Gene expression” value ([2]; patient SCCa-Right Cheek, 1 Copaxone injection) was “CD45, CD3,; also recorded: OX401, GITR,”. For the same substance, the “immune marker expression after treatment (GeoMx, overall)” value ([2]; patients, biopsy vs resected treated tumor, listed as Copaxone®) was “immunostimulatory effect at the intratumoral injection site; also recorded: Several patients exhibited upregulated expression of genes that encode targets for checkpoint inhibitor therapy; also recorded: upregulated markers of stimulatory immune activity; also recorded: Immune markers including hallmarks of T cell recruitment and activation were upregulated in tumors”, the “Gene Ontology enrichment, upregulated biological processes” value ([3]; all three patients) was “upregulation in genes involved in promoting an immune-rich tumor microenvironment” and the “genes downregulated post treatment” value ([3]; patient 1) was 406 genes. For the same substance, the “genes upregulated post treatment” value ([3]; patient 1, |FC|<4 filter as printed, listed as Copaxone) was 6355 genes, the “genes upregulated post treatment” value ([3]; patient 1, |FC|<4 filter as printed, listed as Copaxone®) was 6,355 genes and the “genes downregulated post treatment” value ([3]; patient 2) was 75 genes. The “genes upregulated post treatment” value ([3]; patient 2) was 647 genes, the “genes downregulated post treatment” value ([3]; patient 3) was 128 genes and the “genes upregulated post treatment” value ([3]; patient 3) was 5375 genes. The “Gene Ontology enrichment, downregulated biological processes” value ([3]; three patients) was “No biological processes were consistently found to be downregulated post treatment”, the systemic exposure [4] was “negligible systemic exposure” and the “aggregate formation near the injection site” value [5] was “formed spherical aggregates near the injection site”. The “tumor growth / tumor size” value [6] was “significantly increased tumor growth; also recorded: increases tumor size”, the “retention of co-delivered immunostimulants at injection site” value [7] was “retaining other HIT-IT such as CpG and PolyI: C at the intratumoral site of injection” and the “effect on EAE” value [8] was “suppress EAE”. The “mouse survival (not exceeding 1750 mm^3 tumor volume or 1.8 cm diameter)” value [9] was “three of five”.
